Assay results taken from PMC3152332 (Nucleic Acids Research, 2011).

Legend:
[1] = target: Ec-Mtq2-Trm112 (Encephalitozoon cuniculi, UniProt Q8SRR4); conditions: SAM co-purified with the complex; contacts only Mtq2 residues
[2] = target: Hs-Mtq2 + Hs-Trm112 (Homo sapiens, UniProt Q9Y5N5); conditions: labelled compound; with Hs-Trm112; methylation buffer, 30 °C, 15 min
[3] = target: yeast Mtq2-Trm112 (Saccharomyces cerevisiae, UniProt Q03920); conditions: labelled compound; eRF1, eRF3 and GTP present
Chain of yeast Mtq2-Trm112 (Q03920 whole entry): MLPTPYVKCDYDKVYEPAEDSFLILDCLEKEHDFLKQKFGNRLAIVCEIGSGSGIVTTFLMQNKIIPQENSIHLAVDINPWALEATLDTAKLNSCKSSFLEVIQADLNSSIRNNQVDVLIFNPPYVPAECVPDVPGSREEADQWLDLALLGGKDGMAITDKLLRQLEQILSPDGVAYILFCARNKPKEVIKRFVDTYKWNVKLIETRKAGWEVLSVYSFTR
Chain of yeast Mtq2-Trm112 (P53738 whole entry partner): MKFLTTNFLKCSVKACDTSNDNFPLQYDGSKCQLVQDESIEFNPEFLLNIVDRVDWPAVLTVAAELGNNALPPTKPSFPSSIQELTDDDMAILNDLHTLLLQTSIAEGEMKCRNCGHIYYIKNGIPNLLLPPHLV

Chain of Hs-Mtq2 + Hs-Trm112 (Q9Y5N5 whole entry): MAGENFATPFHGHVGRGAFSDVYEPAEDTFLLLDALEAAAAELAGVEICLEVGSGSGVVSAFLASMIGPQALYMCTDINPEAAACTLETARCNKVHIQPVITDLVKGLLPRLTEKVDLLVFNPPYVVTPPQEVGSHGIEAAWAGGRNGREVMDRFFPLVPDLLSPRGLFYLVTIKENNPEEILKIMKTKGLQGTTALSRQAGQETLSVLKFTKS
Chain of Hs-Mtq2 + Hs-Trm112 (Q9UI30 whole entry partner): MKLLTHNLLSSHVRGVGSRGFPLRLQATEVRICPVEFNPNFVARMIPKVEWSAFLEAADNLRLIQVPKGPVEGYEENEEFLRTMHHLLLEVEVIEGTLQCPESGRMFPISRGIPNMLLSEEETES
Chain of Ec-Mtq2-Trm112 (Q8SRR4 1-164): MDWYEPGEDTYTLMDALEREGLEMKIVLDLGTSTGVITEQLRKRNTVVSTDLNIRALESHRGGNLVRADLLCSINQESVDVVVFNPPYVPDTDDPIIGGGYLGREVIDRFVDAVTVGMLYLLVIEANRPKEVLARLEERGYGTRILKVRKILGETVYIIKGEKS
Chain of Ec-Mtq2-Trm112 (Q8SUP0 1-125 partner): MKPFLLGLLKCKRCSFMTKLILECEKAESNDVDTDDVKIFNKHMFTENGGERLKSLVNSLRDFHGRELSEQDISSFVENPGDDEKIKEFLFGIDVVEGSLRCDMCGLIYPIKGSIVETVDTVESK

`C[S+](CC[C@H](N)C(=O)O)C[C@H]1O[C@@H](n2cnc3c(N)ncnc32)[C@H](O)[C@@H]1O` (stereo partly drawn) [SAM] was tested, and the “X-ray crystal structure, 2.1 Å” value [1] was “an unambiguous electron density corresponding to a SAM molecule is present in its expected binding site”, the SAM-binding activity [2] was “Incubation of this protein with an equimolar amount of Hs-Trm112 resulted in restoration of SAM-binding activity” and the “[3H]SAM methylation of eRF1, initial velocity” value [3] was “incubating eRF1, eRF3 and GTP with Mtq2-Trm112 complex in presence of [3H] SAM”.
